How the values were obtained:
SGLT1 = target: T1, SGLT1 (Homo sapiens, UniProt P13866); test: 14C-AMG uptake in BHK cells transfected with SGLT1 (96-well cell-based assay); conditions: 50 μM AMG, 37° C., 90 min
T1 construct: expressed in transfected cells
T1 sequence (P13866 1-664): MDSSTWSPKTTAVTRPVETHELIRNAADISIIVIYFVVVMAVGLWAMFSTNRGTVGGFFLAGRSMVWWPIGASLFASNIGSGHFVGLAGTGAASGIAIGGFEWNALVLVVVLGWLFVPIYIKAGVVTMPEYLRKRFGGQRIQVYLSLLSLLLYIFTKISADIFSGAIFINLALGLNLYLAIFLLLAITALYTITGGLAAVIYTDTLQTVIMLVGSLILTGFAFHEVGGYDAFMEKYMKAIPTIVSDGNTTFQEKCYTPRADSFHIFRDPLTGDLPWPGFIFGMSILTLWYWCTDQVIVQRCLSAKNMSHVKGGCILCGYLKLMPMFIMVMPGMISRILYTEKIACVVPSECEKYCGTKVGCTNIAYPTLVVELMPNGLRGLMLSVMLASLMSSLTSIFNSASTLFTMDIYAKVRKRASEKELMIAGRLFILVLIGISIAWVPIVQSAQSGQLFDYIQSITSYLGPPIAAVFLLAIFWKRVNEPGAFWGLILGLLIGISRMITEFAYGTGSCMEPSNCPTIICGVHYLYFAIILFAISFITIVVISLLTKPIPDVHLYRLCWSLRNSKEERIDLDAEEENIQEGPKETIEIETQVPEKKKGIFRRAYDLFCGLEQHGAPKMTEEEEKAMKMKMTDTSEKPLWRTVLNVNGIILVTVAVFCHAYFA
Excerpt: (§1) The compounds can be tested for their SGLT inhibition properties by means of BHK cells expressing SGLT1 and SGLT2. The production of the cells and the testing can be carried out as described below.
To construct the SGLT1 expression vector (KL225), the SLC5A1 gene (homologous to NM-000343) was amplified from a cDNA library using standard PCR technology and cloned over NheI/XhoI sites into the pcDNA3.1 expression vector (Invitrogen) containing neomycin as a selection marker. In this vector, transcription uses the enhancer/promoter of human cytomegalovirus.
(§2) The final vector KL225 together with an additional vector containing a dihydrofolate reductase gene as a selection marker was introduced into cells. […] After growth for 2-3 weeks, the cells were cloned (0.5 cells/well) and the clones were investigated for SGLT expression in radioactivity uptake tests. […]
(§3) BHK cells (transfected with SGLT1 or SGLT2) were seeded into 96-well microtitre plates (Cultureplates, Perkin Elmer). […] The radioactivity was counted in a Topcount microplate scintillation counter (Perkin Elmer). The non-specific uptake was determined in sodium-free assay buffer (266 mM sucrose, 2 mM KCl, 1 mM CaCl2, 1 mM MgCl2, 10 mM HEPES, 5 mM Tris, adjusted to pH 7.4 using 1 M KOH).

SGLT2 = target: T2, SGLT2 (Homo sapiens, UniProt P31639); test: 14C-AMG uptake in BHK cells transfected with SGLT2 (96-well cell-based assay); conditions: 2 mM AMG, 37° C., 90 min
T2 construct: expressed in transfected cells
T2 sequence (P31639 1-672): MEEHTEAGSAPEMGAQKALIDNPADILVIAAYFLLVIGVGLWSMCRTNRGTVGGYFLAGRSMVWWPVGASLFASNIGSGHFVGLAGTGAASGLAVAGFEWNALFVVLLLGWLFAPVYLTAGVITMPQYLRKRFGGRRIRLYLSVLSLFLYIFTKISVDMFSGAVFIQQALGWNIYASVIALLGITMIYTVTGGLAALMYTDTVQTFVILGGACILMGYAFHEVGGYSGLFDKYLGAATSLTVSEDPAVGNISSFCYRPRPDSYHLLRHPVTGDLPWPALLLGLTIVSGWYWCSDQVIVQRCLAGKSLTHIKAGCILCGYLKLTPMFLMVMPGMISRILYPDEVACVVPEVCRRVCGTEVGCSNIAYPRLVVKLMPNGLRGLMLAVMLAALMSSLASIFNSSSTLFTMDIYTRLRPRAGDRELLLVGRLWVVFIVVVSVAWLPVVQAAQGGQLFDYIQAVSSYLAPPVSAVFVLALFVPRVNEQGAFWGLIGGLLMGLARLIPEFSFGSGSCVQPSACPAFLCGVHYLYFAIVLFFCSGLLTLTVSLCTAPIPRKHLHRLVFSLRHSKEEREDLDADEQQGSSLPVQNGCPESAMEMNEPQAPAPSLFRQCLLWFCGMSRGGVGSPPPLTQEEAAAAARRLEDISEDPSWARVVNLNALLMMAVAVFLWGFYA
Excerpt: as §1
To construct the SGLT2 expression vector (KL224), the SLC5A2 gene (homologous to NM_003041) was amplified from a cDNA library using standard PCR technology and cloned over NheI/XhoI sites into PCI-neo expression vector (Promega) containing neomycin as a selection marker. In this vector, transcription uses the enhancer/promoter of human cytomegalovirus and the SV40 polyadenylation signal.
as §2, with “KL224” for “KL225”
as §3

| SMILES | IC50 (SGLT1) | IC50 (SGLT2) |
| --- | --- | --- |
| Cc1cccc(C)c1Nc1c(-c2ccccc2OCC(N)=O)c(C#N)c2ccccn12 [Compound A2, 2-{2-[1-Cyano-3-(2,6-dimethylphenylamino)indolizin-2-yl]phenoxy}acetamide] | 1000 to 10000 nM | 10 to 1000 nM |
| COc1cccc(OCC(N)=O)c1-c1c(C#N)c2ccccn2c1Nc1c(C)cccc1C [Compound A1, 2-{2-[1-cyano-3-(2,6-dimethylphenylamino)indolizin-2-yl]-3-methoxyphenoxy}acetamide] | 1000 to 10000 nM | 10 to 1000 nM |
